Results from patent publication US12173061B2, “Compositions and methods for treatment of chronic lung diseases” (Board of Regents, The University of Texas System, priority 2021, dated 2024).

Tests used:
[1] = system: pulmonary fibrosis after lung injury; details: cited from earlier work; for subsequent pulmonary fibrosis: after BLM, prior work; for PF in mice after single (1×) or multi-hit (8×) BLM-, Ad-TGF-β1-, silica- and thoracic radiation-induced lung injury: prior work of the inventor's group
[2] = system: AECs / lung epithelial cells (LECs); details: cited from earlier work; for BLM-induced apoptosis of lung epithelial cells (LECs): in vitro and in vivo, prior work; for AEC apoptosis: prior work of the inventor's group
fLfs = details: prior work of the inventor's group; cited from earlier work
[3] = system: BLM-induced pulmonary fibrosis; experiment: BLM-induced established pulmonary fibrosis in mice, treatment d14-d21; type: in vivo; details: for BLM-induced pulmonary fibrosis (overall): mice, 1.0 U/kg BLM IT, peptide 10 mg/kg/d IP daily for 7 days starting d14; for lung compliance / lung elastance: flexiVent; for whole lung total hydroxyproline: lung homogenates
Method: FIGS. 9A-9O. M9 peptide and protein mitigated BLM-induced pulmonary fibrosis. Mice exposed to saline or 1.0 U/kg BLM by intratracheal instillation were treated with or without M9 peptide HGHVDPVKTPKI (SEQ ID NO: 4) (10 mg/kg/d) and M9 protein (SEQ ID NO: 1) 7.5 mg/kg/d) via IP injection daily for 7 days starting d14 after BLM injury. FIG. 9A: Representative micro-CT images at d21 after BLM exposure. FIG. 9B: Lung volumes were measured by quantitative-CT renditions. Lung compliance (FIG. 9C) and elastance (FIG. 9D) were measured using a flexiVent system. Lung weights (FIG. 9E) and body weights (FIG. 9F) are presented as bar graphs. Lung homogenates were tested for hydroxyproline (FIG. 9G), soluble collagen (FIG. 9H), pro-fibrogenic marker proteins (FIG. 9I) and mRNAs (FIG. 9J). Bars indicate mean±SD. Statistical significance (*P<0.05, **P<0.01, ***P<0.001 and ****P<0.0001) was assessed by one-way ANOVA with Turkey's multiple comparison. fLfs isolated from IPF lungs treated with PBS or recombinant full length M9 (rM9^FL) protein (2 μg/ml) for 48 h in vitro were tested for pro-fibrogenic proteins (FIG. 9L). fLfs (from IPF lungs) treated with PBS or extracellular domain of rM9^FL protein (rM9^ECD) as in FIG. 9L were tested for pro-fibrogenic proteins (FIG. 9N). The survival the mice treated with rM9^FL is shown FIG. 9M.
FIGS. 10A-10K. UNC5A (“U5”) peptide/protein mitigated BLM-induced pulmonary fibrosis. Mice exposed to saline or 1.0 U/kg BLM by intratracheal instillation were treated with or without U5 peptide (50 residues, SEQ ID NO: 7) (10 mg/kg/d) and full length U5 protein (SEQ ID NO: 5) (7.5 mg/kg/d) via IP injection daily for 7 days starting d14 after BLM injury. FIG. 10A: Representative micro-CT images at d21 after BLM exposure. FIG. 10B: Lung volumes were measured by quantitative-CT renditions. Lung compliance (FIG. 10C) and elastance (FIG. 10D) were measured using a flexiVent system. Lung weights (FIG. 10E) and body weights (FIG. 10F) are presented as bar graphs. Lung homogenates were tested for hydroxyproline (FIG. 10G), soluble collagen (FIG. 10H), pro-fibrogenic marker proteins (FIG. 10I) and mRNAs (FIG. 10J). Bars indicate mean±SD. Statistical significance (*P<0.05, **P<0.01, ***P<0.001 and ****P<0.0001) was assessed by one-way ANOVA with Turkey's multiple comparison.
FIGS. 11A-11K. ALG5 (“A5”) protein mitigated BLM-induced pulmonary fibrosis. Mice exposed to saline or 1.0 U/kg BLM by intratracheal instillation were treated with or without A5 protein (SEQ ID NO: 9) (7.5 mg/kg/d) via IP injection daily for 7 days starting d14 after BLM injury. FIG. 11A: Representative micro-CT images at d21 after BLM exposure. FIG. 11B: Lung volumes were measured by quantitative-CT renditions. Lung compliance (FIG. 11C) and elastance (FIG. 11D) were measured using a flexiVent system. Lung weights (FIG. 11E) and body weights (FIG. 11F) are presented as bar graphs. Lung homogenates were tested for hydroxyproline (FIG. 11G), soluble collagen (FIG. 11H), pro-fibrogenic marker proteins (FIG. 11I) and mRNAs (FIG. 11J). Bars indicate mean±SD. *P<0.05, **P<0.01, ***P<0.001 and ****P<0.0001 were obtained by one-way ANOVA with Turkey's multiple comparison.
FIGS. 12A-12E. WT mice with BLM-PF were treated with or without rM9^ECD (1.5 mg/kg) via intratracheal (IT) instillation daily for 7 d starting d 14 after BLM. Survival (FIG. 12A), body weights (FIG. 12B), lung volumes (FIG. 12C) and lung weights (FIG. 12D) were measured on d 21 post-BLM. Lung homogenates were tested for soluble collagen (FIG. 12E).
FIGS. 13A-13B. FIG. 13A: fLfs (IPF) treated with PBS or M9^mAb (2 μg/ml) or control IgG, tested for pro-fibrogenic proteins (i) and mRNAs (ii). FIG. 13B: WT mice with BLM-PF were left untreated, or intraperitoneal (IP) injected with control IgG or M9^mAb (2.5 mg/kg) daily for 7 d starting 14 d after IT BLM. Body weights (i) and total lung hydroxyproline (ii), and soluble collagen (iii) were measured. […]

[4] = peptide 10 mg/kg/d IP, 7 days starting d14 after BLM
[5] = peptide 10 mg/kg/d IP, 7 days starting d14 after BLM, d21

DGIWKASFTTFTVTKYWFYR (listed as Homo sapiens) [CSP]
subsequent pulmonary fibrosis [1]: prevented | PF in mice after single (1×) or multi-hit (8×) BLM-, Ad-TGF-β1-, silica- and thoracic radiation-induced lung injury [1]: blocked | BLM-induced apoptosis of lung epithelial cells (LECs) [2]: protected | AEC apoptosis [2]: inhibited | fLf expansion (fLfs): inhibited

FTTFTVT (listed as Homo sapiens) [CSP7]
tolerability in mice ([1]; prior work (Marudamuthu et al., 2019)): well-tolerated | PF in mice after single (1×) or multi-hit (8×) BLM-, Ad-TGF-β1-, silica- and thoracic radiation-induced lung injury [1]: blocked | AEC apoptosis [2]: inhibited | fLf expansion (fLfs): inhibited

HGHVDPVKTPKI (listed as Homo sapiens) [M9 peptide]
BLM-induced pulmonary fibrosis (overall) ([3]; d21): mitigated | BLM-induced pulmonary fibrosis (overall) ([3]; d21, listed as M9 12-Mer Peptide): Mitigated | BLM-induced pulmonary fibrosis (overall) ([3]; d21, listed as SEQ ID NO: 4): resolved | BLM-induced fibrogenic marker proteins (Col1, FN, TN-C, α-SMA) in whole lung homogenates [3, 4]: marked inhibition | body weight [3, 4]: improvement | collagen and other extracellular matrix deposits (Trichrome staining of lung sections) [3, 4]: remarkable reduction | fibrogenic marker transcripts in whole lung homogenates [3, 4]: marked inhibition | lung weight [3, 4]: reduction | lung compliance [3, 5]: improved | lung elastance [3, 5]: improved | whole lung total hydroxyproline [3, 4]: significant inhibition | lung volume ([3]; peptide 10 mg/kg/d IP, 7 days starting d14 after BLM, quantitative CT, d21): improved

NYHYLESSMTALYTLGH (listed as Homo sapiens) [PP-2]
subsequent pulmonary fibrosis [1]: prevented | BLM-induced apoptosis of lung epithelial cells (LECs) [2]: protected

VYCRKKEGLDSDVADSSILTSGFQPVSIKPSKADNPHLLTIQPDLSTTTT (VYCRKKEGLDSDVADSSILTSGFQPVSIKPSKADNPHLLTIQPDLSTTTT; listed as Homo sapiens) [U5A peptide]
BLM-induced pulmonary fibrosis (overall) ([3]; d21, listed as U5A 50-Mer Peptide): Mitigated | BLM-induced pulmonary fibrosis (overall) ([3]; d21, listed as U5 peptide): mitigated | BLM-induced fibrogenic marker proteins (Col1, FN, TN-C, α-SMA) in whole lung homogenates [3, 4]: inhibition | body weight [3, 4]: improvement | collagen and other extracellular matrix deposits (Trichrome staining of lung sections) [3, 4]: reduction | fibrogenic marker transcripts in whole lung homogenates [3, 4]: inhibition | lung weight [3, 4]: reduction | lung compliance [3, 5]: improved | lung elastance [3, 5]: improved | whole lung total hydroxyproline [3, 4]: reduction
